Data taken from US20240099344A1, “HYDROXY- AND METHOXY-SUBSTITUTED FLAVONOIDS AND THEIR USE” (Firmenich SA, priority 2021, published 2024).

Legend:
[1] = system: human sensory panel (sweet, bitter or astringent taste); assay: Sensory testing in model bases (human sensory panel, 20 trained panelists); assay type: in vivo; details: 10 ppm; scale of −5 (strong masking effect) to 5 (strong enhancing effect); 0 = reference water solution containing 4% sucrose or 10 ppm mixture of Limonin, Naringin and Nomilin
From the text: Certain HMF compounds were tasted by a human sensory panel to assess their ability to reduce bitterness, reduce astringency, and enhance sweetness. The panel consisted of 20 trained panelists evaluating the samples at 10 ppm for taste properties (sweet, bitter or astringent) on a scale of −5 to 5 (−5 denoted strong masking effect and 5 denoted strong enhancing effect, 0 being the intensity of a reference water solution containing 4% sucrose or 10 ppm mixture of Limonin, Naringin and Nomilin).

[2] = system: human sensory panel (bitter and astringent taste); assay: Sensory testing in applications (human sensory panel, 8 experts); assay type: in vivo; details: scale of −5 (strong masking) to 5 (strong enhancing), 0 = reference application; for Smart Protein Beverage Astringent / Smart Protein Beverage Bitter / Smart Protein Beverage Off-flavor: 10 ppm in smart protein beverage
From the text: Certain HMF compounds were tasted by a human sensory panel to assess their ability to reduce bitterness and astringency. The panel consisted of 8 experts evaluating the samples at 10 ppm for taste properties (bitter and astringent) on a scale of −5 to 5 (−5 denoted strong masking effect and 5 denoted strong enhancing effect, 0 being the intensity of a reference application in coffee, tea or pomegranate juice, smart protein beverage).

COc1ccc(-c2oc3cc(OC)c(OC)c(O)c3c(=O)c2OC)cc1O [Compound 108, 3,6,7,4′-tetramethoxy-5,3′-dihydroxyflavone]
Astringency [1]: −1.01
Bitterness [1]: −1.94
Sweetness [1]: −0.08
Smart Protein Beverage Astringent [2]: −0.33
Smart Protein Beverage Bitter [2]: −0.42
Smart Protein Beverage Off-flavor [2]: −0.33

COc1cc(-c2oc3cc(O)cc(O)c3c(=O)c2O)ccc1O [Compound 106, 3,4′,5,7-tetrahydroxy-3′-methoxyflavone]
Astringency [1]: −0.34
Bitterness [1]: −1.47
Sweetness [1]: 0.58

COc1c(O)cc2oc(-c3ccccc3)cc(=O)c2c1O [Compound 104, 5,7-dihydroxy-6-methoxyflavone]
Astringency [1]: −0.48
Bitterness [1]: −1.08
Sweetness [1]: 0.17

COc1ccc(-c2cc(=O)c3c(O)c(OC)c(O)c(OC)c3o2)cc1 [Compound 101, 5,7-dihydroxy-6,8,4′-trimethoxyflavone]
Astringency [1]: −1.21
Bitterness [1]: −1.59
Sweetness [1]: −0.23
Coffee Astringency ([2]; 10 ppm in coffee): 0.17
Coffee Bitterness ([2]; 10 ppm in coffee): −0.58
Pomegranate Juice Astringency ([2]; 10 ppm in pomegranate juice): 0.67
Pomegranate Juice Bitterness ([2]; 10 ppm in pomegranate juice): 0.31
Smart Protein Beverage Astringent [2]: 0.4
Smart Protein Beverage Bitter [2]: −0.6
Smart Protein Beverage Off-flavor [2]: −0.1
Tea Astringency ([2]; 10 ppm in tea): 1.00
Tea Bitterness ([2]; 10 ppm in tea): 0.83

COc1c(O)cc(O)c2c(=O)cc(-c3ccccc3)oc12 [Compound 109, 5,7-dihydroxy-8-methoxyflavone]
Astringency [1]: −0.64
Bitterness [1]: −1.54
Sweetness [1]: −0.58

O=c1cc(-c2ccc(O)cc2)oc2cc(O)c(O)c(O)c12 [Compound 103, 5,6,7,4′-tetrahydroxyflavone]
Astringency [1]: −0.35
Bitterness [1]: −1.28
Sweetness [1]: 0.50
Smart Protein Beverage Astringent [2]: 0.25
Smart Protein Beverage Bitter [2]: 0.00
Smart Protein Beverage Off-flavor [2]: −0.50

COc1ccc(-c2cc(=O)c3c(O)c(OC)c(O)cc3o2)cc1OC [Compound 105, 5,7-dihydroxy-6,3′,4′-trimethoxyflavone]
Astringency [1]: −0.53
Bitterness [1]: −2.02
Sweetness [1]: 0.58
Smart Protein Beverage Astringent [2]: −1.0
Smart Protein Beverage Bitter [2]: −0.80
Smart Protein Beverage Off-flavor [2]: −0.80

COc1cc(O)cc2c1C(=O)CC(c1ccccc1)O2 (stereo not drawn) [Compound 107, 5-methoxy-7-hydroxyflavanone]
Astringency [1]: −1.56
Bitterness [1]: −2.56
Sweetness [1]: 0.08
